Assay results reported in ChEMBL document CHEMBL3580597 (J Med Chem, 2015).

Tests used:
[1] = target: Transcription initiation factor TFIID subunit 1 (Homo sapiens, UniProt P21675); assay: Binding affinity to biotinylated TAF1B2 (155 to 276 amino acid residues) (unknown origin) expressed in Rosetta2 cells by bio-layer interferometry method
[2] = target: SWI/SNF-related matrix-associated actin-dependent regulator of chromatin subfamily A member 4 (Homo sapiens, UniProt P51532); assay: Binding affinity to biotinylated BRG1 (59 to 180 amino acid residues) (unknown origin) expressed in Rosetta2 cells by bio-layer interferometry method
[3] = target: CREB-binding protein (Homo sapiens, UniProt Q92793); assay: Binding affinity to biotinylated CREBBP (1043 to 1159 amino acid residues) (unknown origin) expressed in Rosetta2 DE3 cells by bio-layer interferometry method
[4] = target: T1, Bromodomain-containing protein 2 (Homo sapiens, UniProt P25440); assay: Binding affinity to biotinylated BRD2 BD1 (72 to 205 amino acid residues) (unknown origin) expressed in Rosetta2 DE3 cells by bio-layer interferometry method
[5] = target: T1, Bromodomain-containing protein 2; assay: Displacement of FAM-labeled ZBA248 from BRD2 BD1 (72 to 205 amino acid residues) (unknown origin) expressed in Rosetta2 DE3 cells after 30 mins by fluorescence polarization assay
[6] = target: T2, ATPase family AAA domain-containing protein 2B (Homo sapiens, UniProt Q9ULI0); assay: Binding affinity to biotinylated ATAD2B (953 to 1086 amino acid residues) (unknown origin) expressed in Rosetta2 DE3 cells by bio-layer interferometry method
T2 sequence (Q9ULI0 whole entry): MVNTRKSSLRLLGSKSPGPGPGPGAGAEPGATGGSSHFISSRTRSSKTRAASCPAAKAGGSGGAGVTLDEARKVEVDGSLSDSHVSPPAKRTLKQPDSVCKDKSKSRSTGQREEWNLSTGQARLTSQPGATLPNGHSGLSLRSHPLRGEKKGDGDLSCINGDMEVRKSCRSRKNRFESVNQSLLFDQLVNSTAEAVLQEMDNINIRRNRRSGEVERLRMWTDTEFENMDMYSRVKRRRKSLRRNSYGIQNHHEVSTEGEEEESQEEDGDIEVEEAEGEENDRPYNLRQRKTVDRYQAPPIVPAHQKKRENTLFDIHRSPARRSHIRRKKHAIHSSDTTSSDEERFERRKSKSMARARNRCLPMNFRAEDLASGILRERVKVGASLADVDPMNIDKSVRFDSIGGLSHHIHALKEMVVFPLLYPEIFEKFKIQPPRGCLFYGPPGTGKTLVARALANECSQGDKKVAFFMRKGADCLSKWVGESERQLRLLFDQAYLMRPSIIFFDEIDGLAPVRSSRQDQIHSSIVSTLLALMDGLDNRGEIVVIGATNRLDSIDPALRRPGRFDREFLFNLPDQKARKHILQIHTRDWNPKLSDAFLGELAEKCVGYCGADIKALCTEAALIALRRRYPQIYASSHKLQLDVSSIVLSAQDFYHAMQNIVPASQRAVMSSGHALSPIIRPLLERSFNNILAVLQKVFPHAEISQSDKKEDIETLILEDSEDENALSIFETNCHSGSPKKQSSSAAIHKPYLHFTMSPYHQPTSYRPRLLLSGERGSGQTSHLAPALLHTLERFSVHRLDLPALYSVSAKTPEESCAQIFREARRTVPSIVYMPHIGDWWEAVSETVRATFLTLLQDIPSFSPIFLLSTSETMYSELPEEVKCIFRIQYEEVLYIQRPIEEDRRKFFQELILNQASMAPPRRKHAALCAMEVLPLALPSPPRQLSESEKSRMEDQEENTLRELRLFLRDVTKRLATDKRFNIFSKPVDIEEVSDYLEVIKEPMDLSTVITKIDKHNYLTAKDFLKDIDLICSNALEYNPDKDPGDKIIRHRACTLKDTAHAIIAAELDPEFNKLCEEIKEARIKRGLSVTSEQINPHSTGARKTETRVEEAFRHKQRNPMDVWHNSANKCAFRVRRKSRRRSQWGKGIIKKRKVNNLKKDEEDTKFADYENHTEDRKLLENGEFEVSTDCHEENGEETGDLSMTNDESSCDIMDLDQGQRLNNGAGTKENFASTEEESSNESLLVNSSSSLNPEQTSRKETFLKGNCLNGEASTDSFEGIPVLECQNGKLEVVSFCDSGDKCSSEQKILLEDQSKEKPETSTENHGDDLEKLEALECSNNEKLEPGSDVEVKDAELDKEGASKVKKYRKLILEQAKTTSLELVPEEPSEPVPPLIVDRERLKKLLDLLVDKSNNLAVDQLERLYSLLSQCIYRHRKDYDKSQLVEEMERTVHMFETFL

[7] = tested on: MV4-11; assay: cells; assay type: functional, cell-based; settings: Homo sapiens, MV4-11, 96 h

T1 sequence (P25440 whole entry, the tested form may be a part): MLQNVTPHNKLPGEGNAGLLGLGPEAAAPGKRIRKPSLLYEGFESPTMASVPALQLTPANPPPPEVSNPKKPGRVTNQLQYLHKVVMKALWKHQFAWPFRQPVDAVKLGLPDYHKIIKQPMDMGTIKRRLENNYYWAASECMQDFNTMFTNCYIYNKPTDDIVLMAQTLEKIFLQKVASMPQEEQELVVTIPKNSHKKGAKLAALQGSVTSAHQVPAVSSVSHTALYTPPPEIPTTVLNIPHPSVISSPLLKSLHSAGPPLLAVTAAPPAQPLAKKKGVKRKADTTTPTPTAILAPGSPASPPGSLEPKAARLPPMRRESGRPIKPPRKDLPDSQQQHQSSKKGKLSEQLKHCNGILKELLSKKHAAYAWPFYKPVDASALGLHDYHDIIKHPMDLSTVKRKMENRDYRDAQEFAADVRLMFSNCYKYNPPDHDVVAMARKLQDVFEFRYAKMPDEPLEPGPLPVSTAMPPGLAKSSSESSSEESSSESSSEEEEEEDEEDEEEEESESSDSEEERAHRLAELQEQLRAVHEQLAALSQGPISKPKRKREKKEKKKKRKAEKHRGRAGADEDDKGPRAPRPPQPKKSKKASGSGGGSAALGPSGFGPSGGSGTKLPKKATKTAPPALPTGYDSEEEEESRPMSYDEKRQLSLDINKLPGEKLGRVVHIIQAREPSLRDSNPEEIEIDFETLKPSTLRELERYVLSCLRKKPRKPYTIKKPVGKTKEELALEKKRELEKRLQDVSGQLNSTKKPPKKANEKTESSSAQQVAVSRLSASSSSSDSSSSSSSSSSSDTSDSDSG
CREB-binding protein, sequence (Q92793 whole entry, the tested form may be a part): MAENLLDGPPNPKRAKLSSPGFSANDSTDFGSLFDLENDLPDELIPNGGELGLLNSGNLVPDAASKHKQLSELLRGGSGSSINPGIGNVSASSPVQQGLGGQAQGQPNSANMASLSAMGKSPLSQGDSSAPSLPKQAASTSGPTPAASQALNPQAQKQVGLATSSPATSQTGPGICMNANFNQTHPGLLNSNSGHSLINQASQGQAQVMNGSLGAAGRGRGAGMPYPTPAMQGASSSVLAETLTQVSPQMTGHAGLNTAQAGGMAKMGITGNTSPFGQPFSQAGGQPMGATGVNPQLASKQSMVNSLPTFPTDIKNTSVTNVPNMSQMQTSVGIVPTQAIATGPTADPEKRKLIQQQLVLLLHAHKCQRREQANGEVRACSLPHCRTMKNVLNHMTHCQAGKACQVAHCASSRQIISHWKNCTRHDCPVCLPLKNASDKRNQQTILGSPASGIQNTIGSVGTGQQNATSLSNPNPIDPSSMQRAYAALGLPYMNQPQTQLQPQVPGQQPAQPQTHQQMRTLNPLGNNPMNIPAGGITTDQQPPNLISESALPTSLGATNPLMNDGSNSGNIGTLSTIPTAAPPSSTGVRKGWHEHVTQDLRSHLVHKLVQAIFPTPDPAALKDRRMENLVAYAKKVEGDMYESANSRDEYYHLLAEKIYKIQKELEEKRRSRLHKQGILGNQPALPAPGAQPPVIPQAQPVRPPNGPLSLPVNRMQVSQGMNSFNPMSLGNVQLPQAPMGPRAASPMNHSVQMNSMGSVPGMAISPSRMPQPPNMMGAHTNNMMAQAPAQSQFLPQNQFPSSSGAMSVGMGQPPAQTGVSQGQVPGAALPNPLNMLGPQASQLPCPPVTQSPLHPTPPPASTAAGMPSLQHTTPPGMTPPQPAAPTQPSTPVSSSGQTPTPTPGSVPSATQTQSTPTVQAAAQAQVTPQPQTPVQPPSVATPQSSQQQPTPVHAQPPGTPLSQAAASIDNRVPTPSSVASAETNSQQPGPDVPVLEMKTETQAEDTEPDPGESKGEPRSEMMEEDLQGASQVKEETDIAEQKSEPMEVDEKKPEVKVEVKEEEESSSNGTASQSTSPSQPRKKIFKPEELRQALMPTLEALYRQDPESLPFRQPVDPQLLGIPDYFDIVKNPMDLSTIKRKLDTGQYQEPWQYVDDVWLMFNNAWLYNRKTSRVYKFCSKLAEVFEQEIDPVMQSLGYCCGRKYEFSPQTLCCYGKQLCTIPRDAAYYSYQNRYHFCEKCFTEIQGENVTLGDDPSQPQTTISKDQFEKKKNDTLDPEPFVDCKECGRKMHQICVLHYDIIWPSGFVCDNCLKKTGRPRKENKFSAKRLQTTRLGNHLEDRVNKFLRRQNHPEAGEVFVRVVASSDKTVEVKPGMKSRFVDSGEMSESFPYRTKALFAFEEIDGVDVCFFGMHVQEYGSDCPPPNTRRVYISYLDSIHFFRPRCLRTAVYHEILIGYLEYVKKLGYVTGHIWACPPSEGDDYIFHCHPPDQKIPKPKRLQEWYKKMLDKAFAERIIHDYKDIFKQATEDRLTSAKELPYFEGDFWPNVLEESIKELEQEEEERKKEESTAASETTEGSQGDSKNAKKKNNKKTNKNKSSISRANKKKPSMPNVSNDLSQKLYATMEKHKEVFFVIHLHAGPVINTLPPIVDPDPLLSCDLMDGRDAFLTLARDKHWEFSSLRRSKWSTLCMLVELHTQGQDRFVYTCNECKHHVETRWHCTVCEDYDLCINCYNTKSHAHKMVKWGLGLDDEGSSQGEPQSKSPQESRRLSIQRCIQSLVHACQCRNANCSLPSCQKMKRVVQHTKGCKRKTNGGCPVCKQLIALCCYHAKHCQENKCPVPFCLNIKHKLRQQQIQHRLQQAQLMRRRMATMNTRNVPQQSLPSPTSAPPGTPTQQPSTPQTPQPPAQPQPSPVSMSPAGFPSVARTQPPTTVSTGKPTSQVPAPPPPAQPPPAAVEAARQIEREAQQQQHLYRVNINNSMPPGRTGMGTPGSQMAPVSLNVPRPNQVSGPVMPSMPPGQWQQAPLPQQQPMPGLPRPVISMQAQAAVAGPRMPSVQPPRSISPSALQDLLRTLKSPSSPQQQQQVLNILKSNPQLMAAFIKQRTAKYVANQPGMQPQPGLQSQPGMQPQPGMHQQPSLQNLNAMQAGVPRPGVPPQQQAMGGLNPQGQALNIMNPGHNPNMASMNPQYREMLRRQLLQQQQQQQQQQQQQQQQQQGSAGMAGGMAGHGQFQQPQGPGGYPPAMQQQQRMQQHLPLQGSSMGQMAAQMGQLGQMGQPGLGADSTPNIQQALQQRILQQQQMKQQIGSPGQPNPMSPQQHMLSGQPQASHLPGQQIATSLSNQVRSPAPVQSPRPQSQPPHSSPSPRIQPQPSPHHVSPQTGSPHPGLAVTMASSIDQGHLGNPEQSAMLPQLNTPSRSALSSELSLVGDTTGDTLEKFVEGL
SWI/SNF-related matrix-associated actin-dependent regulator of chromatin subfamily A member 4, sequence (P51532 whole entry, the tested form may be a part): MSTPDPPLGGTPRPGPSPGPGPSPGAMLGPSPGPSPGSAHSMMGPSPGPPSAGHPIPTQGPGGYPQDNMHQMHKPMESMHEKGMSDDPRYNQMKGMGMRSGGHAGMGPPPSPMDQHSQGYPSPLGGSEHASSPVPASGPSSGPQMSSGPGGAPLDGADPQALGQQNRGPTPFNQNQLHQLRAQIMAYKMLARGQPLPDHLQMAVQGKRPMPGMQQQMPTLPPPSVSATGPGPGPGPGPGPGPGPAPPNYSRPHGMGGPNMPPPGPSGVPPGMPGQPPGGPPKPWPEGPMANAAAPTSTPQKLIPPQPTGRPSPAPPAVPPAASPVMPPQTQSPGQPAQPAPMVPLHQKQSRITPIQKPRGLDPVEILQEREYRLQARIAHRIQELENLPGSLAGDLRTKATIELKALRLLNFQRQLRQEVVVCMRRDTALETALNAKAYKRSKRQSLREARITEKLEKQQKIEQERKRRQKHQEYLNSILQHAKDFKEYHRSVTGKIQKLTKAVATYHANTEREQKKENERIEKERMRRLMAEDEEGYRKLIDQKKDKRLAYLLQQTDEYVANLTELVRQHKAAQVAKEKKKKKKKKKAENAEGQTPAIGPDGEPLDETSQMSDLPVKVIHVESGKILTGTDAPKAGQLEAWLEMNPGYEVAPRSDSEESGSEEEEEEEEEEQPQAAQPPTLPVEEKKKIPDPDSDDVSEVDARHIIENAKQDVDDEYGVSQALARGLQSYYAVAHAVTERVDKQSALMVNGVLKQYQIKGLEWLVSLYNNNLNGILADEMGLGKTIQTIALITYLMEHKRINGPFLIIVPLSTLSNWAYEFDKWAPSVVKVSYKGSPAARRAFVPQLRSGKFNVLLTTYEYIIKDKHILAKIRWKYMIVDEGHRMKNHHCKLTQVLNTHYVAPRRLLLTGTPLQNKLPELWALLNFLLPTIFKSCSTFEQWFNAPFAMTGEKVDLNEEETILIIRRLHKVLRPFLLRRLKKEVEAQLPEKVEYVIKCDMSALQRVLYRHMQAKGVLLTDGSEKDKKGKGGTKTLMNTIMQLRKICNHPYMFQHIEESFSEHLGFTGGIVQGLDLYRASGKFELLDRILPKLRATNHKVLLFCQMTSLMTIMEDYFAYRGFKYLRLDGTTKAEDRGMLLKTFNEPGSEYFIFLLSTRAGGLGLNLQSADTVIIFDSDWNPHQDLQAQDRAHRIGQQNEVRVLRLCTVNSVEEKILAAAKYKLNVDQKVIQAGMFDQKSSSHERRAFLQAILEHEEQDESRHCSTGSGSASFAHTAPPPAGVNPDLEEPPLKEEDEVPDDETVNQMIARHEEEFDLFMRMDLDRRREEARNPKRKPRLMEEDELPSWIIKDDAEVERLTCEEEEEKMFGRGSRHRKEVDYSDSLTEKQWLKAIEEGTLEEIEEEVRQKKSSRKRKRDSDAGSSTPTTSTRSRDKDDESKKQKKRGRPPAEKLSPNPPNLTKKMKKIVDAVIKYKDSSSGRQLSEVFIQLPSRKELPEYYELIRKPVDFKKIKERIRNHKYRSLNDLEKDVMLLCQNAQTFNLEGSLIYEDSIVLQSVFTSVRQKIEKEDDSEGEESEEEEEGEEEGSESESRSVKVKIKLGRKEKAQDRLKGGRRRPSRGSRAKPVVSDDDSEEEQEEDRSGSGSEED

Kd [1]: > 10 µM
Kd [2]: > 10 µM
Kd [3]: 0.67 µM
Kd [4]: 0.0481 µM
Ki [5]: 0.0111 µM
Kd [6]: > 10 µM
IC50 [7]: 0.02 µM
Compound: COc1cc2c(cc1-c1c(C)noc1C)[nH]c1ccnc(-c3c(C4CC4)n[nH]c3C)c12
